According to patent US4748179A, “β-carbolin-3-carboxylic acid derivatives and their use as benzodiazepine antagonists” (Schering Aktiengesellschaft, priority 1983, dated 1988):

Experiments:
[1] = test system: pentazole-induced seizures in diazepam-treated NMRI mice; assay: Antagonism of benzodiazepine (diazepam) action on pentazole-induced seizures; type: in vivo; details: i.p., against 5 mg/kg diazepam i.p.; pentazole 150 mg/kg s.c.; clonic seizures in 50% of animals
Experimental: Antagonism of Benzodiazepine action on pentazol-induced seizures in NMRI mice (20-25 g).
15 minutes later each group of mice were injected intraperitoneally with different doses of the test compounds and after further 15 minutes the mice received 150 mg/kg pentazol, administered subcutaneously. Clonic seizures within the next 30 minutes were noted. Based on the data obtained the ED50 value was calculated.

[2] = Inhibition of motor coordination (ataxia); type: in vivo; details: mouse, sc, mice, 30 minutes after subcutaneous administration, read-out: Inhibition of/Ataxia (motor-incoordination)
Experimental: The inhibition of motor coordination in mice was also studied 30 minutes after subcutaneous administration in accordance with a method described in the litterature (Buus Lassen et al., Acta Pharmacol. et Toxicol., 1971, 39, 1-16).

benzodiazepine receptors [3] = assay: Displacement of 3H-flunitrazepam specific binding in vitro, rat forebrain membrane suspension; details: 3H-flunitrazepam 1.0 nM, 0° C., pH 7.1
[4] = test system: lorazepam-induced ataxia in NMRI mice; assay: Antagonism of benzodiazepine (lorazepam) action in motor incoordination, rotating rod; type: in vivo
Experimental: Antagonism of benzodiazepine action in motor incoordination.
NMRI mice (20-25 g) were placed on a horizontal wooden rod (diameter 4.3 cm), rotating at a rate of 6 min^-1, 8 cm above the bench. […] The ability of the compounds of this invention to antagonize the effect of benzodiazepine in motor coordination has been determined by determining the ED50 -value. […] The test was performed as follows:
At least 3 groups of mice (8 mice in each group) were injected intraperitoneally with 2 mg/kg lorazepam. 15 minutes later each group of mice were injected with different doses of the test compounds and after further 15 minutes the test for ataxia was performed. Based on the data obtained the ED50 -value was calculated.

[5] = test system: pentazole-induced convulsions; assay: Antagonism of pentazole-induced convulsions; type: in vivo; details: ip; read-out: Antagonism of pentazole-induced convulsions ED50 i.p.
Source text: The antagonism of pentazole induced convulsions was investigated.
The test has been performed according to known test models in pharmacology,e.g., as described in R. A. Turner, Screening Methods in Pharmacology, Academic Press, N.Y. and London 1965, esp. p. 164 ff. or Woodbury, P. M., Perry, I. K. and Schmidt, R. P. Antiepileptic Drugs, Raven Press, N.Y. 1972.

benzodiazepine receptors [6] = assay: In vivo displacement of 3H-flunitrazepam binding to benzodiazepine receptors in living brain; details: mice, usually subcutaneously, 3H-flunitrazepam i.v. 15 minutes later
Source text: The pharmaceutical properties of the compounds of the invention have been investigated by determining their capability for displacing radioactively labelled flunitrazepam from such benzodiazepine receptors, and their ability to antagonize pentazole induced convulsions.
The displacement activity of the compounds of the invention has been determined by determining the IC50 value and ED50 value.
The ED50 value represents the dose (mg/kg) of a test substance which causes the specific binding of flunitrazepam to benzodiazepine receptors in a living brain to be reduced to 50% of the control value. Such an in vivo test is carried out as follows:
Groups of mice are injected with the test substance at different doses and usually subcutaneously. 15 minutes later ^3 H-flunitrazepam is giving intravenously to the mice and after further 20 minutes the mice are killed, […]. The ED50 value is determined from dose-response curves.

Row | Compound | ED50, antagonism of benzodiazepine action on pentazole-induced seizures [1] | ED50 at 0.5 h [2] | 3H-flunitrazepam binding in vitro IC50 (benzodiazepine receptors [3]) | ED50, antagonism of benzodiazepine action in motor incoordination ([4]; against 2 mg/kg lorazepam i.p., ataxia in 50% of animals, compound 15 minutes after lorazepam) | ED50 [5] | 3H-flunitrazepam binding in vivo ED50 (benzodiazepine receptors [6]) | induction of ataxia (more than three falls from the rod within 2 min) ([4]; 2 mg/kg i.p. 30 min before test)
1 | CCOC(=O)c1ncc2[nH]c3cccc(OC(C)C)c3c2c1C [(CH3)2 CH, CH3, 5-isopropoxy-4-methyl-β-carboline-3-carboxylic acid ethylester] | 0.7 mg/kg | > 100 mg/kg | 0.6 ng/mL | 1.0 mg/kg | > 100 mg/kg | 0.3 mg/kg | –
2 | CCOC(=O)c1cc2c(cn1)[nH]c1cccc(OC(C)C)c12 [(CH3)2 CH, H, 5-Isopropoxy-β-carboline-3-carboxylic acid ethylester] | – | > 100 mg/kg | 0.4 ng/mL | – | > 100 mg/kg | 6.4 mg/kg | –
3 | CCOC(=O)c1ncc2[nH]c3cccc(OC)c3c2c1CC [CH3, CH3 CH2, 4-Ethyl-5-methoxy-β-carboline-3-carboxylic acid ethylester] | – | > 100 mg/kg | 1.4 ng/mL | – | > 100 mg/kg | 3.0 mg/kg | –
4 | CN1C(=O)CN=C(c2ccccc2)c2cc(Cl)ccc21 [Diazepam, reference compound] | – | 3 mg/kg | 3 ng/mL | – | 3 mg/kg | 1.5 mg/kg | –
5 | O=C1Nc2ccc(Cl)cc2C(c2ccccc2Cl)=NC1O (centres unmarked) [Lorazepam, reference compound] | – | 0.3 mg/kg | 1 ng/mL | – | 0.1 mg/kg | 0.2 mg/kg | induced ataxia in all animals
